Reference: US20200010489A1, “ZWITTERIONIC SILATRANE-BASED MATERIAL AND ANTIFOULING SUBSTRATE CONTAINING SAME” (National Central University, priority 2018, published 2020)

Assay: Chemical stability test of dry solid powders (FTIR, photographs)
Type: physicochemical
Settings: RH=79%
Procedure: The dry solid powders of SBSi and SBSiT obtained above are placed in a laboratory environment (RH=79%, temperature=24° C.) for 24 hours, and the chemical stabilities of SBSi and SBSiT are examined by Fourier transform infrared spectroscopy (FTIR). Referring to FIG. 1A, signals is centered at 1050 and 1612 cm^−1 corresponding to Vas(SO3^−) and Vb(N(CH3)^+), respectively, so as to ensure that all samples have a sulfobetaine moiety.

Question: With `CO[Si](CCC[N+](C)(C)CCCS(=O)(=O)[O-])(OC)OC` [SBSi, sulfobetaine silane, reference compound] as the molecule, how does the “FTIR spectra / absorption intensity after storage for 24 hours compared with before storage” value (dry solid powder, temperature=24° C.) read?
Answer: The value was “significantly lower”.

Question: What about the “appearance of solid after storage for 24 hours (hygroscopic properties)” value (moisture environment, 24° C.) of the same molecule?
Answer: Its value is “clearly deliquescent”.
